Data taken from paper PMC10761396, “Evaluation of new alternative methods for the identification of estrogenic, androgenic and steroidogenic effects: a comparative in vitro/in silico study” (Archives of Toxicology, 2023).
Read-outs that look alike come from different tables or passages of the source.

What was measured:
human (non-selective) ER = experiment: ER radioligand ([3H]estradiol) receptor-binding assay; conditions: for inhibition of control specific binding to the ER: single-dose screening, 10 µM
Experimental: The chemicals were tested for their ability to bind to different targets. […] Chemicals were incubated at 10 µM with cells overexpressing ER or AR for 24 h at 4°C, after which, the binding of the radiolabeled ligand ([^3H]estradiol for ER and [^3H]methyltrienolone for AR) was measured by liquid scintillation counting. An increase or decrease higher than 50% were considered to represent significant effects. Four chemicals were tested in additional incubations at several concentrations up to the maximum soluble concentration for IC50 or EC50 determination for the associated target. Receptor binding was calculated as a % inhibition of the binding of a radioactively labeled ligand specific for each target.
(§1) Each test chemical was tested in a single assay in duplicate.

[1] = molecular target: T1, human recombinant CYP19A1 (Homo sapiens, UniProt P11511); experiment: Recombinant enzyme aromatase activity inhibition assay; format: biochemical; conditions: follow-up dose–response assay
T1 sequence (P11511 1-503): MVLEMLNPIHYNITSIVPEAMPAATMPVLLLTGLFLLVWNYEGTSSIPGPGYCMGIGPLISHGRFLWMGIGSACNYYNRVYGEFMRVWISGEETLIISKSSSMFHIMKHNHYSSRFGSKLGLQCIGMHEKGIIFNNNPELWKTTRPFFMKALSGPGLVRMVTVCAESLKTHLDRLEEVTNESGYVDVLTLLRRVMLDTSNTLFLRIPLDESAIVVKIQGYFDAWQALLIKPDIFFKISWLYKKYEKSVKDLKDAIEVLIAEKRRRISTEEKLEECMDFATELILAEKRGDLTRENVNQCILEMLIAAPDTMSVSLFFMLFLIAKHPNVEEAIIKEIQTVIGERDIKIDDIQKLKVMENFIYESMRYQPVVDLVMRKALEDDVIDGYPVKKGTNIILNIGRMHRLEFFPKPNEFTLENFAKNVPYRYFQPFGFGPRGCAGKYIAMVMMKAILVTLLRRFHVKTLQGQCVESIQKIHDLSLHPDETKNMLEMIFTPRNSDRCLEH
Experimental: An aromatase inhibition assay was also included in the in vitro assay panel. This enzyme – otherwise known as CYP19A1 - is responsible for converting androgens into estrogens (Blakemore and Naftolin 2016; Bulun 2014); therefore, chemicals that inhibit aromatase activity can lead to reduced estrogen production, which can affect reproductive and developmental processes (Kragie 2002; Tiboni and Ponzano 2016).
The metabolite, estradiol, was measured by time-resolved fluorescence according to the method described previously (Ji et al. 2014). Enzyme inhibition was calculated as a % inhibition of control enzyme activity.

aromatase = experiment: ToxCast aromatase assays (TOX21_Aromatase_Inhibition) and final ToxCast call; format: cell-based; conditions: for ToxCast result: aromatase overall ToxCast call; for Final "true" call (ToxCast) Aromatase inhibition: from ToxCast assays
From the text: The performance of different in silico models for ED effects tends to be evaluated on single model for a single effect, such as ER or AR binding, agonism or antagonism (normally by the developer), or a limited number of models using multiple chemicals (Weyrich et al. [2022]). Multi-organisation collaborations have also evaluated multiple models for a specific effect e.g. ER (Mansouri et al. [2016]) and AR (Mansouri et al. [2020]) effects. Therefore, we have conducted a side-by-side comparison of multiple different in silico models covering three pathways in ED, namely ER, AR and aromatase inhibition and compared these with ToxCast-derived final calls, as well as with results from in vitro assays. The efficiency of the in silico models was evaluated as a metric for the ability of the in silico model to generate concrete predictions. […] In vivo data were available for some but not all chemicals; therefore, an evaluation of the performance of the methods was made by comparing the derived overall calls from in silico models with those from the ToxCast database. The final call for each chemical evaluated in the ToxCast assays was made by considering the active-flagged assays and the corresponding cytotoxicity levels, the ToxCast Pathway Model (Browne et al. [2015]) and the CERAPP Potency Level (Mansouri et al. [2016]) for ER effects and the ToxCast Pathway Model (Kleinstreuer et al. [2017]) for AR effects (see Online Resource 1 Supplementary Tables 2, 4 and 6 for the outcome of the ER, AR and aromatase ToxCast assays, additional literature and final calls for each chemical and target).
Aromatase represents only one enzyme involved in steroidogenesis (the conversion of androgens to oestrogens); therefore, the aromatase assay detects effects on 17β-oestradiol production only. […] It is a cell-based assay in which MCF-7 cells are incubated with the test chemical for 24 h before measuring aromatase activities indirectly via a luciferase-based reporter endpoint which is dependent on the binding of the oestradiol–ER complex to the oestrogen response element. A decrease in luciferase activity can occur as a result of direct inhibition of aromatase (preventing the production of oestradiol) or by preventing oestradiol from binding to the ER and thus the binding to the oestrogen RE which initiates the production of luciferase (Lui et al. [2008]).

ER [2] = tested on: ER; set-up: method as in US EPA ToxCast; conditions: ref US EPA ToxCast, cited from earlier work; for ToxCast 1: (Active assays), ER assay listed as active: each listed assay name = active-flagged assay
ER [3] = tested on: ER; set-up: method as in Mansouri et al. 2016; conditions: ref Mansouri et al. 2016; cited from earlier work
AR [4] = tested on: AR; set-up: method as in ToxCast; conditions: ref ToxCast, cited from earlier work; for ToxCast conclusion from assays result: AR sheet; for ToxCast 1: (Active assays), number of positive assays / assays run: ToxCast AR assays
ERα = molecular target: T2, ERα (Homo sapiens, UniProt P03372); experiment: YES (Yeast oestrogen screen) assay, agonist and antagonist mode; conditions: YES agonist assay; duplicates in two independent experiments
T2 sequence (P03372 1-595): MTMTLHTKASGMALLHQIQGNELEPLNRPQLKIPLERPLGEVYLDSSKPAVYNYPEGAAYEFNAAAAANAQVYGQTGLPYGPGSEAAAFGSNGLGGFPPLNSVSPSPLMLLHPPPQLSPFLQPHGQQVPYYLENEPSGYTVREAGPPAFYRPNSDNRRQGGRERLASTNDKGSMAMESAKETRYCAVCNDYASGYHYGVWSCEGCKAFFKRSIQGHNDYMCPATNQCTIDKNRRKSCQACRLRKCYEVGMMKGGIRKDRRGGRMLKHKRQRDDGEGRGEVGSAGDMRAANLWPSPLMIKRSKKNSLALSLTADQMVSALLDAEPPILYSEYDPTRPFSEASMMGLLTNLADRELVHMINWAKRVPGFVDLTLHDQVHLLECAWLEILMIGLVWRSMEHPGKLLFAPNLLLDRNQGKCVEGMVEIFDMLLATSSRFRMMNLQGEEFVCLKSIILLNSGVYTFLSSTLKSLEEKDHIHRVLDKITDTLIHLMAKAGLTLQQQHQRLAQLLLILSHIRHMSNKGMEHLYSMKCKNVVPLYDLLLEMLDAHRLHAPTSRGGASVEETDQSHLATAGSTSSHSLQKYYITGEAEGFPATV
Experimental: The YES/YAS XL (Xtra Lyticase) assay kit from Xenometrix AG (Allschwil, Switzerland) was conducted according to the Supplier’s instructions.
In the YES assay, human ERα is integrated in the yeast (Saccharomyces cerevisiae) chromosome, and for the YAS assay human AR is integrated (Routledge and Sumpter 1996; Sohoni and Sumpter 1998). […] This enzyme then converts a yellow substrate to a purple metabolite, which can be measured colorimetrically.
Growing yeast cells stably transformed with either hERα (YES) or hAR (YAS) and a β-galactosidase reporter system were exposed to a range of concentrations of each test compound. […] The positive control chemicals for agonistic effects were 17-β estradiol for YES and 5α-dihydrotestosterone for YAS. […] A combination of a fixed concentration of positive control and a range of concentrations of each test chemical were tested. The cells were incubated with each treatment for 18 h at 31°C. The cells were lysed in the presence of the yellow β-galactosidase-substrate, chlorophenol red-β-D-galactopyranoside (CPRG). Yeast cell growth was assessed prior to addition of the lysis buffer by measuring the absorbance at 690 nm. The production of the red metabolite of CPRG was determined by measuring the absorbance at 570 nm. It was corrected for diffraction by cells and debris by a simultaneous measurement at 690 nm. The results were evaluated for estrogenic and androgenic agonistic and antagonistic activity, as well as for yeast growth inhibition or cytotoxicity.
An IR value ≥ IR10 in the YES or YAS agonist assay indicates an agonistic effect (IR10 is defined as the IR which is 10% of (IR max - IR solvent) above the IR solvent. An IR value ≤ IR50 in the YES or YAS antagonist assay indicates a possible antagonistic effect (IR50 is defined as 50% of (IR control - IR solvent), where the IR control is at the corresponding fixed concentration of agonist used: 3.3 × 10^-10 M 17-β estradiol and 3.3 × 10^-9 M 5α-dihydrotestosterone, respectively). […]

human AR = human AR (Homo sapiens, UniProt P10275); experiment: AR radioligand ([3H]methyltrienolone) receptor-binding assay
Chain of human AR (P10275 whole entry): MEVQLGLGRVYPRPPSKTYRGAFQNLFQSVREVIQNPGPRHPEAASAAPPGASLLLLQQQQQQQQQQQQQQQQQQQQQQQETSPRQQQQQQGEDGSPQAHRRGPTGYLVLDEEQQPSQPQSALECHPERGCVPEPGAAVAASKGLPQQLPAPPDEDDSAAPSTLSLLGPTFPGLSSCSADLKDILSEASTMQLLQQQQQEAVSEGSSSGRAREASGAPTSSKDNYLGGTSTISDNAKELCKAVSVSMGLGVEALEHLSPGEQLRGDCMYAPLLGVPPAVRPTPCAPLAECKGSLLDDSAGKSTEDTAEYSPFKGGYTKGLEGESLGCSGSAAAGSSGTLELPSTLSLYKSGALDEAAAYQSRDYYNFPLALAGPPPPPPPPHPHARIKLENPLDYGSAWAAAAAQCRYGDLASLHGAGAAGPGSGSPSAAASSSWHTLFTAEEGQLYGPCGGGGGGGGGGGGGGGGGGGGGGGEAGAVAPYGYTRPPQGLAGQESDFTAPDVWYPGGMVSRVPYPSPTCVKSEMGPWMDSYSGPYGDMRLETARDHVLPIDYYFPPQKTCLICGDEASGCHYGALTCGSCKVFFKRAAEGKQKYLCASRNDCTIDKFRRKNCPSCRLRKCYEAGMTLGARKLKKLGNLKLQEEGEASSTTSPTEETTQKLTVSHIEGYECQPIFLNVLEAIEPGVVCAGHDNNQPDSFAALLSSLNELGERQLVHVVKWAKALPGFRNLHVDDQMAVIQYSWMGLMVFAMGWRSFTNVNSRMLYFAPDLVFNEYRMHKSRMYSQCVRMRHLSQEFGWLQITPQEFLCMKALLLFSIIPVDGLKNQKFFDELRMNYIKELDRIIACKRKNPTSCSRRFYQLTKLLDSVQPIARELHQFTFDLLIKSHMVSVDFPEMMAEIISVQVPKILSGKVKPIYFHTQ
Experimental: Binding to ER and AR was conducted using standard methods for radioligand assays (Kurata et al. [2005]; Zava et al. [1979]).
The chemicals were tested for their ability to bind to different targets. In radioligand assays, targets included the binding affinity to human (non-selective) ER and human AR (Kurata et al. 2005; Zava et al. 1979). Chemicals were incubated at 10 µM with cells overexpressing ER or AR for 24 h at 4°C, after which, the binding of the radiolabeled ligand ([^3H]estradiol for ER and [^3H]methyltrienolone for AR) was measured by liquid scintillation counting. An increase or decrease higher than 50% were considered to represent significant effects. […] Receptor binding was calculated as a % inhibition of the binding of a radioactively labeled ligand specific for each target.
as §1

AR [5] = conditions: AR pathway model; ref Kleinstreuer et al (2017) 10.1021/acs.chemrestox.6b00347; cited from earlier work

| Compound | inhibition of control specific binding to the ER (human (non-selective) ER) | aromatase inhibition outcome [1] | ToxCast result (aromatase) | Final "true" call (ToxCast) Aromatase inhibition (aromatase) | ToxCast 1: (Active assays), positive/total ER assays (ER [2]) | ToxCast conclusion from assays result (ER [2]) | CERAPP Potency Level (ER [3]) | ToxCast conclusion from assays result (AR [4]) | ToxCast 1: (Active assays), number of positive assays / assays run (AR [4]) | ER agonism in the YES assay (ERα) | AR binding outcome (human AR) | ToxCast Pathway Model (AUC) (AR [5]) | further results |
| --- | --- | --- | --- | --- | --- | --- | --- | --- | --- | --- | --- | --- | --- |
| C[C@]12CCC(=O)C[C@@H]1CC[C@@H]1[C@@H]2CC[C@@]2(C)[C@H]1CC[C@]2(C)O [Mestanolone, mestanolone, reference compound] | more than 50% | lack of binding | Negative | Negative | 2/6 positive | Endocrine Disruption Potential.Significant Estrogen Receptor activity seen | Weak agonist & strong antagonist | Endocrine Disruption Potential.Significant Estrogen Receptor activity seen | 2/6 positive | positive | – | – | ER binding outcome (human (non-selective) ER): confirmed to bind to the ER; IC50 (human (non-selective) ER; follow-up dose–response assay): 1600 nM; Ki (human (non-selective) ER; follow-up dose–response assay): 520 nM; ToxCast 1: (Comments) (ER [2]; for the assay named in the same line): High active; ToxCast 1: (assays Comments) (AR [4]; TOX21_AR_BLA_Agonist_ratio): High active; ToxCast 1: (assays Comments) (AR [4]; TOX21_AR_LUC_MDAKB2_Agonist): High active |
| O=c1c(-c2ccc(O)cc2)coc2cc(O)ccc12 [Daidzein, daidzein] | more than 50% | lack of binding | Negative | Negative | – | Endocrine Disruption Potential.Significant Estrogen Receptor activity seen | Weak agonist & strong antagonist | Endocrine Disruption Potential.Significant Estrogen Receptor activity seen | 2/15 positive | positive | did not bind to the AR | AUC = 0, then there is no significant interaction. | efficacy (assays Comments) (AR [4]; TOX21_AR_LUC_MDAKB2_Agonist): Boarderline: less than 50% efficacy (20.8%) |
| CCCCN(CCCC)c1ccc(C(=O)c2ccccc2C(=O)O)c(O)c1 [DBABA, 2-[4-(dibutylamino)-2-hydroxybenzoyl]benzoic acid] | – | – | Negative | Negative | 2/6 positive | Endocrine Disruption Potential.Significant Estrogen Receptor activity seen | Negative | Endocrine Disruption Potential.Significant Estrogen Receptor activity seen | 2/8 positive | – | did not bind to the AR | – | ToxCast 1: (Active assays), ER assay listed as active (ER [2]; assay TOX21_ERa_BLA_Antagonist_ratio): TOX21_ERa_BLA_Antagonist_ratio; ToxCast 1: (Active assays), ER assay listed as active (ER [2]; assay TOX21_ERa_BLA_Antagonist_viability): TOX21_ERa_BLA_Antagonist_viability; ToxCast 1: (assays Comments) (AR [4]; TOX21_AR_BLA_Antagonist_ratio): Only highest concentration above the baseline; efficacy (assays Comments) (AR [4]; TOX21_AR_BLA_Antagonist_viability): Boarderline: less than 50% efficacy (26.5%) |
| CC(C)(C)CC(C)(C)c1ccc(O)cc1 [4-TO, 4-tert-octylphenol] | – | – | – | Inconclusive | 20/21 positive | Endocrine Disruption Potential.Significant Estrogen Receptor activity seen | Weak agonist & strong antagonist | Endocrine Disruption Potential.Significant Estrogen Receptor activity seen | – | – | significant binding | AUC = 0.23 as agonist, then there is a significant interaction. | inhibition at 10 µM (human AR; read-out: inhibition of control specific binding to the AR): 10% |
